Among the data in BindingDB's records for doi:10.1016/j.bmcl.2014.05.036 (AstraZeneca, 2014) are IC50 values, retold here.

Assay [1] in a line: Inhibition of human BCL-2 overexpressed in mouse FDC-P1 cells assessed as cell viability after 24 hrs by Cell Titer Glo assay. (In ATP-based viability assays light output follows the ATP content of the culture.)
A short description of assay [2]: Inhibition of human BCL-xL overexpressed in mouse FDC-P1 cells assessed as cell viability after 24 hrs by Cell Titer Glo assay.

What is called IC50 is the concentration at which inhibition is half-maximal.

Each structure is given as a SMILES string.

Take `CN(C)C(=O)COc1ccc(-c2ccc(Cl)cc2)c(CN2CCN(c3ccc(C(=O)NS(=O)(=O)c4ccc(N[C@H](CCN5CCOCC5)CSc5ccccc5)c(S(=O)(=O)C(F)(F)F)c4)cc3)CC2)c1`: the figures for the IC50 in assay [1] and in assay [2] were 187 nM and 2090 nM, respectively.
For the compound `CN(C)C(=O)COc1cccc(-c2ccc(Cl)cc2)c1CN1CCN(c2ccc(C(=O)NS(=O)(=O)c3ccc(N[C@H](CCN4CCOCC4)CSc4ccccc4)c(S(=O)(=O)C(F)(F)F)c3)cc2)CC1`, the results for the IC50 in assay [1] and in assay [2] were 45 nM and 226 nM, respectively.
For `O=C(NS(=O)(=O)c1ccc(N[C@H](CCN2CCOCC2)CSc2ccccc2)c(S(=O)(=O)C(F)(F)F)c1)c1cnc(N2CCN(Cc3ccccc3-c3ccc(Cl)cc3)CC2)nc1`, the values for the IC50 in assay [1] and in assay [2] were 340 nM and 2090 nM, respectively.
With `CN(C)CCOc1cccc(-c2ccc(Cl)cc2)c1CN1CCN(c2ccc(C(=O)NS(=O)(=O)c3ccc(N[C@H](CCN4CCOCC4)CSc4ccccc4)c(S(=O)(=O)C(F)(F)F)c3)cc2)CC1`, the IC50 came to 4 nM in assay [1] and 33 nM in assay [2].
On to `O=C(NS(=O)(=O)c1ccc(N[C@H](CCN2CCOCC2)CSc2ccccc2)c(S(=O)(=O)C(F)(F)F)c1)c1ccc(N2CCC([S@@+]([O-])c3ccccc3-c3ccc(Cl)cc3)CC2)cc1`, for which the IC50 was found to be 434 nM in assay [1] and 1720 nM in assay [2].
Turning to `N#CC1(Cc2ccccc2-c2ccc(Cl)cc2)CCN(c2ccc(C(=O)NS(=O)(=O)c3ccc(N[C@H](CCN4CCOCC4)CSc4ccccc4)c(S(=O)(=O)C(F)(F)F)c3)cc2)CC1`, the figures for the IC50 in assay [1] and in assay [2] were 545 nM and 2820 nM, respectively.
In the same order, the values of `O=C(NS(=O)(=O)c1ccc(N[C@H](CCN2CCOCC2)CSc2ccccc2)c(S(=O)(=O)C(F)(F)F)c1)c1ccc(N2CCN(Cc3ccccc3-c3ccc(Cl)cc3)CC2)cc1` are 14 nM and 64 nM.
In the same order, the values of `CN(C)CCOc1ccc(-c2ccc(Cl)cc2)c(CN2CCN(c3ccc(C(=O)NS(=O)(=O)c4ccc(N[C@H](CCN5CCOCC5)CSc5ccccc5)c(S(=O)(=O)C(F)(F)F)c4)cc3)CC2)c1` are 22 nM and 138 nM.
